Test [1] concerns the target T1, tankyrase 2 (TNKS2) (Homo sapiens, UniProt Q9H2K2).
T1 construct: tankyrase 2 (613-1,116aa, ANK5+SAM+PARP); made in house; host or cells: cell-free protein expression system
The experiment in a line: Tankyrase inhibitory activity test (ELISA, auto-poly(ADP-ribosyl)ation), tankyrase 2. The test is classed as biochemical. The conditions noted are these: Flag tagged tankyrase 2 (613-1,116aa, ANK5+SAM+PARP); read-out: TNKS2 (inhibitory activity against tankyrase 2, IC50). The method, then:
(§1) The enzymatic activity of tankyrase 1 and the enzymatic activity of tankyrase 2 were measured by the ELISA method based on assessment of auto-poly(ADP-ribosyl)ation to evaluate the tankyrase inhibitory activity of the compound prepared in each of Examples (test compound) (inhibitory activity against tankyrase 1 (TNKS1) and inhibitory activity against tankyrase 2 (TNKS2)). First, Flag tagged tankyrase 1 (1,024-1,327aa, SAM+PARP) and tankyrase 2 (613-1,116aa, ANK5+SAM+PARP) were synthesized with a cell-free protein expression system, and diluted with a Tris buffer solution (50 mM Tris-HCl (pH 8.0), 150 mM NaCl, 10% glycerol). 50 μL of the diluted tankyrase 1 or tankyrase 2 was added to a plate with an anti-FLAG M2 monoclonal antibody immobilized thereon (Anti-FLAG High-Sensitivity M2-Coated Plate) (Sigma-Aldrich), and the plate was left standing overnight at 4° C. Thereafter, the plate was washed four times with a PBS (PBST) buffer containing 0.1% Triton X-100. For Example 84, the Anti-FLAG High-Sensitivity M2-Coated Plate was replaced by an immunoplate (Thermo Fisher Scientific), tankyrase 1 or tankyrase 2 was immobilized on the immunoplate, and the immunoplate was then blocked with Blocking One (nacalai tesque), then washed with a PBS (PBST) buffer, and used as the following plate.
(§2) Subsequently, the test compound diluted with an assay buffer (50 mM Tris-HCl (pH 8.0), 4 mM MgCl2, 0.2 mM DTT) (DMSO was used as a control) was added to each well of the plate, and the plate was left standing at room temperature for 10 minutes. Thereafter, a biotin-labeled NAD solution (225 μM NAD, 25 μM 6-Biotin-17-NAD (Travigen, Inc.)) was added and mixed as a donor substrate, and the mixture was reacted at 30° C. for 45 minutes. To blank wells was added distilled water instead of the biotin-labeled NAD solution. After the reaction, the plate was washed with a PBST buffer four times. Thereafter, HRP (horseradish peroxidase)-labeled streptavidin (Travigen, Inc.) was diluted with a PBS buffer by 1,000 times, and added to each well, and the mixture was reacted at room temperature for 20 minutes. The plate was washed with a PBST buffer four times, a chemiluminescent substrate solution TACS-Sapphire (Travigen, Inc.) was then added to each well, the mixture was reacted at room temperature for 20 minutes, and the chemiluminescence intensity was measured using a chemiluminescence measuring apparatus. For Example 84, the streptavidin was diluted by 5,000 times, the chemiluminescent substrate solution TACS-Sapphire was replaced by an ELISA POD substrate TMB solution easy (nacalai tesque), the mixture was reacted at room temperature for 30 minutes, and the chemiluminescence intensity was measured using a chemiluminescence measuring apparatus.
(§3) The residual enzymatic activity in the presence of the test compound was determined from the following expression. On the basis of the residual enzymatic activity at each of multiple concentrations of the test compound, the enzyme inhibitory activity was calculated in terms of a 50%-inhibition concentration (IC50 value) using data analysis software Origin (LightStone Corp.). Residual activity (%)={(chemiluminescence intensity with test compound added)−(chemiluminescence intensity of blank)}/{(chemiluminescence intensity of control)−(chemiluminescence intensity of blank)}

The target of test [2] is T2, tankyrase 1 (TNKS1) (Homo sapiens, UniProt O95271).
T2 construct: tankyrase 1 (1,024-1,327aa, SAM+PARP); made in house; host or cells: cell-free protein expression system
The experiment in a line: Tankyrase inhibitory activity test (ELISA, auto-poly(ADP-ribosyl)ation), tankyrase 1. Format: biochemical. The conditions noted are these: Flag tagged tankyrase 1 (1,024-1,327aa, SAM+PARP); read-out: TNKS1 (inhibitory activity against tankyrase 1, IC50). As to the method:
as §1, §2, §3

In test [3] the test system is human colorectal cancer cell line COLO-320DM. As to the kind of experiment: Cell proliferation inhibitory activity test (Celltiter-Glo). The note with it: COLO-320DM cells, 96 hours. Format: cell-based. The method, then: The cell proliferation inhibitory activity of the compound, which had been prepared in each of Examples, against the human colorectal cancer cell line COLO-320DM was evaluated by Celltiter-Glo Luminescent Cell Viability Assay (Promega Corporation; G7573). COLO-320DM cells were cultured in RPMI-1640 medium containing 2 mM glutamine (Wako Pure Chemical Industries, Ltd; 189-02025) supplemented with 10% fetal bovine serum. The cultured cells were washed with PBS, and then dissociated with trypsin/EDTA, and a cell solution with 3×10^4 cells/mL was prepared.
Subsequently, the cell solution was seeded in a 96-well microplate (Thermo/Nunc Company; 136101) in an amount of 70 μL per well, and cultured overnight under the condition of 37° C. and 5% CO2. Next day, a test compound solution obtained by diluting the test compound (DMSO solution) with a cell culture medium (final concentration of DMSO was 1%) was added in an amount of 10 μL per well, and the mixture was reacted under the condition of 37° C. and 5% CO2 for 96 hours (a 1% DMSO solution was used as a control). Thereafter, a Celltiter-GloLuminescent Cell Viability Assay reagent (Promega Corporation; G7573) was added in an amount of 80 μL per well, the mixture was stirred with a shaker for 2 minutes while light was blocked with an aluminum foil, and the mixture was incubated at room temperature for 10 minutes.
Thereafter, a luminescence signal was measured with a luminometer (Biotech Company; Synergy). The ratio of cell proliferation in each compound addition group to cell proliferation in a control group containing no test compound solution, where cell proliferation in the control group is 100%, was calculated and the value of a compound concentration necessary for suppressing the amount of residual cells to 50% of that in the control (GI50) was calculated as the cytostatic activity. […] An unevaluated test compound was designated as “NT”.

T2 sequence (O95271 1024-1327): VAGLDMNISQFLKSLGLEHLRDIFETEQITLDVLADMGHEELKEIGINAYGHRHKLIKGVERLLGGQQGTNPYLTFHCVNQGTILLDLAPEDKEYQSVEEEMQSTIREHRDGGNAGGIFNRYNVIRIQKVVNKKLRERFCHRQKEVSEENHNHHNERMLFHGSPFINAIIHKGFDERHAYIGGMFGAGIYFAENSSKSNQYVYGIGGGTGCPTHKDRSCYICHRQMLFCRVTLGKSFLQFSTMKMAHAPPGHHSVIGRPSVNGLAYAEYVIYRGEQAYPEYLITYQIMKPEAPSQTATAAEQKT

Consider `CN1c2ccccc2C(=O)NC1c1c[nH]nc1-c1ccc(F)cc1` (stereo not drawn) [Example 21, 2-[3-(4-Fluorophenyl)-1H-pyrazol-4-yl]-1-methyl-2,3-dihydroquinazolin-4-one], for which the half-maximal inhibitory concentration (IC50) in test [1] lay in the range of 5 to 20 nM; in test [2] it was 20 to 50 nM. For the same compound, the GI50 in test [3] is not below 10 µM.

Consider `CN1c2ccccc2C(=O)NC1c1c[nH]nc1-c1cccc(-c2ccccc2)c1` (stereo not drawn) [Example 22, 1-Methyl-2-[3-(3-phenylphenyl)-1H-pyrazol-4-yl]-2,3-dihydroquinazolin-4-one], for which the half-maximal inhibitory concentration (IC50) in test [1] and in test [2] was less than 5 nM throughout. For the same compound, the concentration for 50% growth inhibition (GI50) in test [3] was not below 10 µM.

As to `CN1CCN(c2ccc(-c3cccc(-c4n[nH]cc4C4NC(=O)c5ccccc5N4C)c3)cc2)CC1` (stereo not drawn) [Example 23, 1-Methyl-2-[5-[3-[4-(4-methylpiperazin-1-yl)phenyl]phenyl]-1H-pyrazol-4-yl]-2,3-dihydroquinazolin-4-one], the IC50 in test [1] and in test [2] was 20 to 50 nM each time. The GI50 in test [3] fell in the range of 1 to 10 µM.

`CN1c2ccccc2C(=O)NC1c1c[nH]nc1-c1ccc(-c2cccc(O)c2)cc1` (stereo not drawn) [Example 24, 2-[3-[4-(3-Hydroxyphenyl)phenyl]-1H-pyrazol-4-yl]-1-methyl-2,3-dihydroquinazolin-4-one]: the IC50 in test [1] and in test [2] was 5 to 20 nM in each case. Also, in test [3], the GI50 is not below 10 µM.

In the case of `CN1CCN(Cc2ccc(-c3ccc(-c4n[nH]cc4C4NC(=O)c5ccccc5N4C)cc3)cc2)CC1` (stereo not drawn) [Example 25, 1-Methyl-2-[5-[4-[4-[(4-methylpiperazin-1-yl)methyl]phenyl]phenyl]-1H-pyrazol-4-yl]-2,3-dihydroquinazolin-4-one], the half-inhibitory concentration (IC50) in test [1] lay in the range of 20 to 50 nM; in test [2], 5 to 20 nM. Moreover, the GI50 in test [3] is not below 10 µM.

Regarding `CN1CCN(Cc2cccc(-c3ccc(-c4n[nH]cc4C4NC(=O)c5ccccc5N4C)cc3)c2)CC1` (stereo not drawn) [Example 26, 1-Methyl-2-[5-[4-[3-[(4-methylpiperazin-1-yl)methyl]phenyl]phenyl]-1H-pyrazol-4-yl]-2,3-dihydroquinazolin-4-one], the IC50 in test [1] is 5 to 20 nM; in test [2] it was 20 to 50 nM. Moreover, the GI50 in test [3] is not below 10 µM.

As for `CN1c2ccccc2C(=O)NC1c1c[nH]nc1-c1ccc(OCC(F)(F)F)cc1` (stereo not drawn) [Example 27, 1-Methyl-2-[3-(4-(2,2,2-trifluoromethoxy)phenyl]-1H-pyrazol-4-yl]-2,3-dihydroquinazolin-4-one], the IC50 in test [1] was 5 to 20 nM; in test [2] it was less than 5 nM. Moreover, the GI50 in test [3] was not below 10 µM.

Consider `CN1c2ccccc2C(=O)NC1c1c[nH]nc1-c1cccc(F)c1` (stereo not drawn) [Example 28, 2-[3-(3-Fluorophenyl)-1H-pyrazol-4-yl]-1-methyl-2,3-dihydroquinazolin-4-one], for which the 50% inhibitory concentration (IC50) in test [1] was 5 to 20 nM; in test [2] it was less than 5 nM. Besides, the GI50 in test [3] lay in the range of 1 to 10 µM.

As for `CN1c2ccccc2C(=O)NC1c1c[nH]nc1-c1ccc(-c2ccc(N3CCOCC3)cc2)cc1` (stereo not drawn) [Example 29], the IC50 in test [1] and in test [2] was 5 to 20 nM each time. In addition, the 50% growth inhibitory concentration (GI50) in test [3] fell in the range of 1 to 10 µM.

Take `CN1c2ccccc2C(=O)NC1c1c[nH]nc1-c1cccc(-c2ccc(N3CCOCC3)cc2)c1` (stereo not drawn) [Example 30]: the IC50 in test [1] and in test [2] was 5 to 20 nM in each case. Also, the GI50 in test [3] was 1 to 10 µM.

Regarding `CN1c2ccccc2C(=O)NC1c1c[nH]nc1-c1ccc(C#N)cc1` (stereo not drawn) [Example 31, 4-[4-(1-Methyl-4-oxo-2,3-dihydroquinazolin-2-yl)-1H-pyrazol-3-yl]benzonitrile], the 50% inhibitory concentration (IC50) in test [1] and in test [2] was 5 to 20 nM each time. In test [3], the concentration for 50% growth inhibition (GI50) was not below 10 µM.

As for `CN1CCN(Cc2ccc(-c3cccc(-c4n[nH]cc4C4NC(=O)c5ccccc5N4C)c3)cc2)CC1` (stereo not drawn) [Example 32], the concentration for half-maximal inhibition (IC50) in test [1] and in test [2] was 20 to 50 nM in each case. The concentration for 50% growth inhibition (GI50) in test [3] was not below 10 µM.

In the case of `CN1CCN(Cc2cccc(-c3cccc(-c4n[nH]cc4C4NC(=O)c5ccccc5N4C)c3)c2)CC1` (stereo not drawn) [Example 33], the IC50 in test [1] and in test [2] was 20 to 50 nM in each case. In addition, the GI50 in test [3] was not below 10 µM.

As to `CN(C)c1ccc(-c2ccc(-c3n[nH]cc3C3NC(=O)c4ccccc4N3C)cc2)cc1` (stereo not drawn) [Example 34, 2-[5-[4-[4-(Dimethylamino)phenyl]phenyl]-1H-pyrazol-4-yl]-1-methyl-2,3-dihydroquinazolin-4-one], the half-maximal inhibitory concentration (IC50) in test [1] and in test [2] was 20 to 50 nM each time. Further, the GI50 in test [3] was in the range of 1 to 10 µM.

Turning to `CN(C)c1ccc(-c2cccc(-c3n[nH]cc3C3NC(=O)c4ccccc4N3C)c2)cc1` (stereo not drawn) [Example 35, 2-[5-[3-[4-(Dimethylamino)phenyl]phenyl]-1H-pyrazol-4-yl]-1-methyl-2,3-dihydroquinazolin-4-one], the IC50 in test [1] and in test [2] was 20 to 50 nM throughout. In test [3], the GI50 is not below 10 µM.

As to `CCOC(=O)Cc1ccc(-c2ccc(-c3[nH]ncc3C3NC(=O)c4ccccc4N3C)cc2)cc1` (stereo not drawn) [Example 36, Ethyl 2-[4-[4-[4-(1-methyl-4-oxo-2,3-dihydroquinazolin-2-yl)-1H-pyrazol-5-yl]phenyl]phenyl]acetate], the IC50 in test [1] and in test [2] was 20 to 50 nM each time. Besides, in test [3], the GI50 is not below 10 µM.

On to `CCOC(=O)Cc1ccc(-c2cccc(-c3n[nH]cc3C3NC(=O)c4ccccc4N3C)c2)cc1` (stereo not drawn) [Example 37, Ethyl 2-[4-[3-[4-(1-methyl-4-oxo-2,3-dihydroquinazolin-2-yl)-1H-pyrazol-5-yl]phenyl]phenyl]acetate], for which the IC50 in test [1] and in test [2] was 20 to 50 nM throughout. The GI50 in test [3] is not below 10 µM.

Take `CN1CCN(c2cccc(-c3ccc(-c4[nH]ncc4C4NC(=O)c5ccccc5N4C)cc3)c2)CC1` (stereo not drawn) [Example 38, 1-Methyl-2-[5-[4-[3-(4-methylpiperazin-1-yl)phenyl]phenyl]-1H-pyrazol-4-yl]-2,3-dihydroquinazolin-4-one]: the IC50 in test [1] and in test [2] was 20 to 50 nM throughout. The 50% growth inhibitory concentration (GI50) in test [3] lay within 1 to 10 µM.

On to `CN1c2ccccc2C(=O)NC1c1c[nH]nc1-c1ccc(-c2ccnc3[nH]ccc23)cc1` (stereo not drawn) [Example 39, 1-Methyl-2-[3-[4-(1H-pyrrolo[2,3-b]pyridin-4-yl)phenyl]-1H-pyrazol-4-yl]-2,3-dihydroquinazolin-4-one], for which the concentration for half-maximal inhibition (IC50) in test [1] and in test [2] was 20 to 50 nM each time. Also, the GI50 in test [3] is not below 10 µM.

(Values after US11566017B2, “Dihydroquinazolinone compound or pharmacologically acceptable salt, and cell growth inhibitor” (RIKEN, priority 2017, dated 2023).)
